According to US8022225B2, “Triazole derivative” (Taisho Pharmaceutical Co., Ltd, priority 2004, dated 2011):

How the values were obtained:
human Edg-1(S1P1) [1] = molecular target: T1, human Edg-1(S1P1) (Homo sapiens, UniProt P21453); test: Cell system binding test: inhibition of [3H]-S1P binding to Edg-1(S1P1) gene transferred HEK-293 cells; details: [3H]-S1P 10 nM
T1 construct: expressed in transfected cells; host or cells: HEK-293
Method: Cells (1×10^5 cells/well) obtained as described above were seeded in poly-L-lysine-coated 96-well plates (Corning Incorporated), and then incubated in a 5% carbon dioxide gas incubator for 12 hours at 37° C. with the use of an MEM medium (Invitrogen Corporation) containing 100 U/mL of penicillin, 100 μg/mL of streptomycin, a 1% MEM nonessential amino acid solution, and 10% FCS. […] After the cells were washed twice with the buffer, they were solubilized with 100 μL of Opti Phase Supermix (produced by Perkin-Elmer), and measured for radioactivity by means of Micro Beta (produced by Perkin-Elmer).
Inhibition rate(%)=[1−(A−C)/(B−C)]×100

human Edg-1(S1P1) [2] = molecular target: T1, human Edg-1(S1P1); test: Membrane system binding test: inhibition of [33P]-S1P binding to the membrane fraction of Edg-1(S1P1) gene transferred HEK-293 cells; details: [33P]-S1P 0.1 nM
Method: The membrane fraction was obtained by treating the cells with a solubilizing buffer (1 mM Tris/HCl, pH 7.2) for 10 minutes on ice, centrifuging the system (1000×g, 5 min) to remove insoluble fractions, and then centrifuging the system (40000×g, 30 min, 4° C.). The resulting membrane fraction was dissolved in a binding buffer (20 mM Tris-HCl, pH 7.4, 100 mM NaCl, 15 mM NaF, 2 mM deoxypyridoxine, 4 mg/mL fatty acid-free BSA), and then [^33P]-S1P (produced by ARC, end concentration 0.1 nM) and a DMSO solution of the test compound (end concentration of the compound: 10^−5 M, end concentration of DMSO: 0.1%) were added, followed by stirring the mixture and subsequently treating it for 1 hour at 30° C. Using a harvester, the membrane fraction was harvested onto unifilter-96GF/C filter (produced by Perkin-Elmer). Then, the filter with the membrane fraction was washed 4 times with the binding buffer, and the filter was dried. To the filter, 25 μL Microscint 0 (produced by Perkin-Elmer) was added, and the assay system was measured for radioactivity by means of Top Count NXT (Packard). Based on the radioactivity, the amount (A) of binding of [^33P]-S1P to the membrane fraction upon addition of the compound was calculated.
The same procedure was performed in the absence of the test compound, and the amount (B) of binding of [^33P]-S1P was calculated. Moreover, the same procedure was performed in the absence of the test compound with the use of HEK-293 cells, to which the Edg-1(S1P1) gene had not been transferred, and the background amount (C) of binding of [^33P]-S1P was calculated.
The Edg-1(S1P1) binding inhibition rate of the compound, calculated from the following equation, is shown in […]

[3] = 10 μM compound, read-out: Cell system binding test % inhibition (10 μM)
[4] = 10 μM compound, membrane fraction of Edg-1(S1P1) gene transferred HEK-293 cells, read-out: Membrane system binding test % inhibition (10 μM)
[5] = test compound 10^-5 M, 1 hour, read-out: Edg-1(S1P1) binding inhibition rate (cell system binding test)
[6] = test compound 10^-5 M, 1 hour at 30° C., HEK-293 membrane fraction, read-out: Edg-1(S1P1) binding inhibition rate (membrane system binding test)

T1 sequence (P21453 whole entry): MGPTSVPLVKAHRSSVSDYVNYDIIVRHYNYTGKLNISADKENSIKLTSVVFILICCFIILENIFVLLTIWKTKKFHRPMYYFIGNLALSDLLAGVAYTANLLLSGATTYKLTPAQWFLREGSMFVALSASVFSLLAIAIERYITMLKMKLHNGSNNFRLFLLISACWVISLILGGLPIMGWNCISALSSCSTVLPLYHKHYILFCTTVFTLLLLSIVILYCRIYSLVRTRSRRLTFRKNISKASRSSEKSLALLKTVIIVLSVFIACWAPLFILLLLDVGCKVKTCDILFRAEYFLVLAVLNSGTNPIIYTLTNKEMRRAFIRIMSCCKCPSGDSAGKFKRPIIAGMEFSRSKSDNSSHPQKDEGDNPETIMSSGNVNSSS

Row | SMILES | inhibition at 10 µM (human Edg-1(S1P1) [1]; [3]) [%] | inhibition at 10 µM (human Edg-1(S1P1) [2]; [4]) [%] | Membrane system binding test % inhibition (10 μM) (human Edg-1(S1P1) [2]; 10 μM compound, membrane fraction of Edg-1(S1P1) gene transferred HEK-293 cells) [%] | inhibition at 10 µM (human Edg-1(S1P1) [1]; [5]) [%] | inhibition at 10 µM (human Edg-1(S1P1) [2]; [6]) [%]
1 | CCn1c(OC)nnc1[C@@H](C)NS(=O)(=O)c1cccc(C#N)c1 [Compound 213] | 96.2 | 66.1 | – | – | –
2 | CCn1c(OC)nnc1[C@@H](C)NS(=O)(=O)c1ccc(OC(F)(F)F)cc1 [Compound 247] | 95.3 | 52 | – | – | –
3 | CCn1c(SCCSC)nnc1[C@@H](C)NS(=O)(=O)c1ccc(Cl)cc1 [Compound 26] | 84 | 61.1 | – | – | –
4 | CCOc1nnc([C@@H](C)NS(=O)(=O)c2cccc(Cl)c2C)n1CC [Compound 430] | 97.9 | 89.2 | – | – | –
5 | C=CCSc1nnc([C@@H](CC)NS(=O)(=O)c2ccc(Cl)cc2)n1C [Compound 106] | 86.9 | – | 52.5 | – | –
6 | C=CCSc1nnc(C(CC)NS(=O)(=O)c2ccc(Cl)cc2)n1CC (centres unmarked) [Compound 109] | 93 | 100 | – | – | –
7 | CCn1c(SCC(=O)OC)nnc1[C@@H](C)NS(=O)(=O)c1ccc(Cl)cc1 [Compound 24] | 82.6 | 60.6 | – | – | –
8 | CCn1c(OC)nnc1[C@@H](C)NS(=O)(=O)c1ccc(C)c(C)c1 [Compound 319] | 93.4 | 89.9 | – | – | –
9 | CCn1c(SCCOCc2ccccc2)nnc1[C@@H](C)NS(=O)(=O)c1ccc(Cl)cc1 [Compound 37] | 92.7 | 92.8 | – | – | –
10 | CCn1c(SCc2ccncc2)nnc1[C@@H](C)NS(=O)(=O)c1ccc(Cl)cc1 [Compound 64] | 91.3 | 86.5 | – | – | –
11 | Cn1c(SCc2ccc(Cl)c(Cl)c2)nnc1C(Cc1ccccc1)NS(=O)(=O)c1ccc(Cl)cc1 (centres unmarked) [Compound 137] | 99 | 57.1 | – | – | –
12 | CCn1c(SCc2ccc(SC)cc2)nnc1[C@@H](C)NS(=O)(=O)c1ccc(Cl)cc1 [Compound 60] | 90.3 | 97.2 | – | – | –
13 | CCn1c(OC)nnc1[C@@H](C)NS(=O)(=O)c1ccc(-c2ccccc2)cc1 [Compound 261] | 94.5 | 56.7 | – | – | –
14 | CCn1c(OCC(C)C)nnc1[C@@H](C)NS(=O)(=O)c1ccc(Cl)cc1 [Compound 389] | 96.3 | 89.6 | – | – | –
15 | CCn1c(SCCC(C)(C)C)nnc1[C@@H](C)NS(=O)(=O)c1ccc(Cl)cc1 [Compound 88] | 87.6 | 97.1 | – | – | –
16 | CCn1c(OC(C)C)nnc1[C@@H](C)NS(=O)(=O)c1cc(F)cc(F)c1 [Compound 474] | – | – | – | 93 | 79
17 | CCn1c(OCC(F)(F)F)nnc1[C@@H](C)NS(=O)(=O)c1ccc(Br)c(Br)c1 [Compound 502] | – | – | – | 108 | 86.3
18 | CCCSc1nnc([C@@H](Cc2ccccc2)NS(=O)(=O)c2ccc(Cl)cc2)n1CC [Compound 139] | 91 | 107 | – | – | –
19 | CCOc1nnc([C@@H](C)NS(=O)(=O)c2ccc([N+](=O)[O-])cc2)n1CC [Compound 413] | 100 | 93.8 | – | – | –
20 | CCn1c(OC)nnc1[C@@H](C)NS(=O)(=O)c1cc(Cl)sc1Cl [Compound 217] | 97.4 | 62.3 | – | – | –
21 | CCn1c(OC)nnc1[C@@H](C)NS(=O)(=O)c1ccc(Cl)c(Cl)c1 [Compound 274] | 102 | 104 | – | – | –
22 | CCOc1nnc([C@@H](C)NS(=O)(=O)c2ccc(Br)s2)n1CC [Compound 400] | 92.8 | 84.8 | – | – | –
23 | CCn1c(OC(C)C)nnc1[C@@H](C)NS(=O)(=O)c1ccc(Cl)cc1 [Compound 379] | 99.7 | 93.4 | – | – | –
24 | CCn1c(OC(C)C)nnc1[C@@H](C)NS(=O)(=O)c1cc(Cl)c(Cl)s1 [Compound 475] | – | – | – | 97.9 | 86.4
25 | CCn1c(OC)nnc1[C@@H](C)NS(=O)(=O)c1ccc(Br)c(C)c1 [Compound 314] | 102 | 100 | – | – | –
